This assay addresses GCN2 kinase (Homo sapiens, UniProt Q9P2K8). The assay can be described thus: GCN2 enzyme inhibition assay (Transcreener ADP2 fluorescence polarization). Conditions: Enzyme activity for compounds of Formula IV; Ki(app), 280 μM ATP, 25° C. The class given is biochemical. Put shortly:
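FP detection of ADP (antibody plus Alexa633 tracer) after a 1 h, 25 °C kinase reaction. Enzyme 4 nM, ATP 280 μM, (RS)7 peptide 200 μM, Tris pH 7.5 buffer with MgCl2 and DTT. Percent inhibition fitted by non-linear tight-binding algorithm for IC50 and Ki(app).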
A general note: In fluorescence polarisation assays a small probe gives low polarisation when free and higher when bound to something large.
Sequence of GCN2 kinase (Q9P2K8 whole entry): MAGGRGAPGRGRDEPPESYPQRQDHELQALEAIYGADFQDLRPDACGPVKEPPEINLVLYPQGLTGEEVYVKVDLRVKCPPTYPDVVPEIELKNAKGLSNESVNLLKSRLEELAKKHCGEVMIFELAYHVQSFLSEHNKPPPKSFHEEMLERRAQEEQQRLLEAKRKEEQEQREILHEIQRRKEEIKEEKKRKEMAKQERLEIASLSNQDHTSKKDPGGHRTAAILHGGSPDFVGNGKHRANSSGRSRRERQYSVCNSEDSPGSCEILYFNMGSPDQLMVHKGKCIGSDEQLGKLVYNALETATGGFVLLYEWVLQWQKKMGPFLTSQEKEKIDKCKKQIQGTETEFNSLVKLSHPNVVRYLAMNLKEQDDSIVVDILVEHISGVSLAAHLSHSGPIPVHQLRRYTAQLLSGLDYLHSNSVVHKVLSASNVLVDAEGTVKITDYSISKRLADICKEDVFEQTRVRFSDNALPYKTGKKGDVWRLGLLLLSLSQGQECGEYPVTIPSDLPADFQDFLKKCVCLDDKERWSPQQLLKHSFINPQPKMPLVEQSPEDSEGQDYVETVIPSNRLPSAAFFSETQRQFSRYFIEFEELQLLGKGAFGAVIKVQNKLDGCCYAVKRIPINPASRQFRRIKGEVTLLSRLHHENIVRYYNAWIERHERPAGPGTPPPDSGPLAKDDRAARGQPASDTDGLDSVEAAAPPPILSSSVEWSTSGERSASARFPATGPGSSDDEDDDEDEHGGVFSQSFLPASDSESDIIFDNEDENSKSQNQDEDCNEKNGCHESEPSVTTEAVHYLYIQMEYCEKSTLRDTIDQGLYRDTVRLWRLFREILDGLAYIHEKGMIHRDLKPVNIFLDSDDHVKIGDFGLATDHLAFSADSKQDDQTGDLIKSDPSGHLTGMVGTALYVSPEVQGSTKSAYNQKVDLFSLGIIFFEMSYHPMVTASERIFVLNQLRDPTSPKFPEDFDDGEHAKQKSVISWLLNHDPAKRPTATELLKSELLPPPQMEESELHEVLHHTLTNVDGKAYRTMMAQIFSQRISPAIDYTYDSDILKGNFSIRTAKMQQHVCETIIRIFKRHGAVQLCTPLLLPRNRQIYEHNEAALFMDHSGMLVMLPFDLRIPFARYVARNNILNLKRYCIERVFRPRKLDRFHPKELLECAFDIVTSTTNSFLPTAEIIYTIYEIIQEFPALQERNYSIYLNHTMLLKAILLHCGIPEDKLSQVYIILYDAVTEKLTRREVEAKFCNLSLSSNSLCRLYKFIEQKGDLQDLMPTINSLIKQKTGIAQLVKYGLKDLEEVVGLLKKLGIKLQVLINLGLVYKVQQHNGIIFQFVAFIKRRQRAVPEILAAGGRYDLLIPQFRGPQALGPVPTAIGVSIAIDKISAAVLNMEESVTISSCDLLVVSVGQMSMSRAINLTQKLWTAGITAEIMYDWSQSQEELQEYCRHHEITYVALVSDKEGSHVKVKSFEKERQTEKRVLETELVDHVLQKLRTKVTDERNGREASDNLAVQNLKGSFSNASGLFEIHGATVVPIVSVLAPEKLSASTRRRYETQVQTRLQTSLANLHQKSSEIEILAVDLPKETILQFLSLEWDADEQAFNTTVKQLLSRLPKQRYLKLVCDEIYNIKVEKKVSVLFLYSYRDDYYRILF
The compound `c1cc(-c2ccc3cc[nH]c3c2)nc(-c2cnc3cnccn23)c1` [IV-1, 3-(6-(1H-Indol-6-yl)pyridin-2-yl)imidazo[1,2-a]pyrazine] registered a Ki of 100 to 1000 nM. In turn, `CC(=O)N1CCN(c2ccnc(-c3cnc4cnc(C#N)cn34)n2)CC1` [IV-31, 3-(4-(4-Acetylpiperazin-1-yl)pyrimidin-2-yl)imidazo[1,2-a]pyrazine-6-carbonitrile] showed a Ki of 100 to 1000 nM.

As for `Cc1cn2c(-c3nccc(N4CCO[C@H](CNS(C)(=O)=O)C4)n3)cnc2cn1` [IV-47, (S)—N-((4-(2-(6-Methylimidazo[1,2-a]pyrazin-3-yl)pyrimidin-4-yl)morpholin-2-yl)methyl)methanesulfonamide], the Ki lay within 100 to 1000 nM. For `CS(=O)(=O)NCC1CCN(c2ccnc(-c3cnc4cnc(C(F)F)cn34)n2)C1` (stereo not drawn) [IV-66, N-((1-(2-(6-(Difluoromethyl)imidazo[1,2-a]pyrazin-3-yl)pyrimidin-4-yl)pyrrolidin-3-yl)methyl)methanesulfonamide], the Ki was in the range of 100 to 1000 nM.

`CS(=N)(=O)c1cccc(-c2ccnc(-c3cnc4cnc(C(F)F)cn34)n2)c1` (stereo not drawn) [IV-79, (3-(2-(6-(difluoromethyl)imidazo[1,2-a]pyrazin-3-yl)pyrimidin-4-yl)phenyl)(imino)(methyl)-λ^6-sulfanone] displayed a Ki of 100 to 1000 nM. In the case of `[O-][S+]1CCN(c2ccnc(-c3cnc4cnc(C(F)F)cn34)n2)CC1` [IV-80, 4-(2-(6-(Difluoromethyl)imidazo[1,2-a]pyrazin-3-yl)pyrimidin-4-yl)thiomorpholine 1-oxide], the Ki lay in the range of 100 to 1000 nM. The result for `O=S1(=O)CCN(c2ccnc(-c3cnc4cnc(C(F)F)cn34)n2)CC1` [IV-84, 4-(2-(6-(Difluoromethyl)imidazo[1,2-a]pyrazin-3-yl)pyrimidin-4-yl)thiomorpholine 1,1-dioxide] reads 100 to 1000 nM. The result for `CC1C(NS(C)(=O)=O)CCCN1c1ccnc(-c2cnc3cnc(C(F)F)cn23)n1` (stereo not drawn) [IV-127, N-(1-(2-(6-(Difluoromethyl)imidazo[1,2-a]pyrazin-3-yl)pyrimidin-4-yl)-2-methylpiperidin-3-yl)methanesulfonamide] reads 100 to 1000 nM; that for `CC(C)(C)OC(=O)N1CCC2(CC1)CCN(c1ccnc(-c3cnc4cnc(C(F)F)cn34)n1)C2` [IV-133, tert-Butyl 2-(2-(6-(difluoromethyl)imidazo[1,2-a]pyrazin-3-yl)pyrimidin-4-yl)-2,8-diazaspiro[4.5]decane-8-carboxylate], 100 to 1000 nM. Take `FC(F)c1cn2c(-c3nccc(-c4cccc(N5CCNCC5)n4)n3)cnc2cn1` [IV-149, 6-(Difluoromethyl)-3-(4-(6-(piperazin-1-yl)pyridin-2-yl)pyrimidin-2-yl)imidazo[1,2-a]pyrazine]: the Ki fell in the range of 100 to 1000 nM.

The compound `CS(=O)(=O)N1CCN(c2cccc(-c3ccnc(-c4cnc5cnc(C(F)F)cn45)n3)n2)CC1` [IV-151, 6-(Difluoromethyl)-3-(4-(6-(4-(methylsulfonyl)piperazin-1-yl)pyridin-2-yl)pyrimidin-2-yl)imidazo[1,2-a]pyrazine] showed a Ki of 100 to 1000 nM.

`FC(F)c1cn2c(-c3nccc(-c4cnn(C5CCOC5)c4)n3)cnc2cn1` (stereo not drawn) [IV-153, 6-(Difluoromethyl)-3-(4-(1-(tetrahydrofuran-3-yl)-1H-pyrazol-4-yl)pyrimidin-2-yl)imidazo[1,2-a]pyrazine]: the Ki was in the range of 100 to 1000 nM. For the compound `Cn1ccc2cc(-c3ccnc(-c4cnc5cnc(C(F)F)cn45)n3)ccc21` [IV-158, 6-(Difluoromethyl)-3-(4-(1-methyl-1H-indol-5-yl)pyrimidin-2-yl)imidazo[1,2-a]pyrazine], the Ki lay within 100 to 1000 nM.

`FC(F)c1cn2c(-c3nccc(C4=CCCC4)n3)cnc2cn1` [IV-163, 3-(4-(Cyclopent-1-en-1-yl)pyrimidin-2-yl)-6-(difluoromethyl)imidazo[1,2-a]pyrazine] had a Ki of 100 to 1000 nM. The compound `CS(=O)(=O)NCC(=O)Nc1cccc(-c2ccnc(-c3cnc4cnc(C(F)F)cn34)n2)c1` [IV-173, N-(3-(2-(6-(Difluoromethyl)imidazo[1,2-a]pyrazin-3-yl)pyrimidin-4-yl)phenyl)-2-(methylsulfonamido)acetamide] gave a Ki of 100 to 1000 nM.

These data come from US10988477B2 (Merck Patent GmbH, priority 2018, dated 2021).
